Experiments:
Assay in all cases: relative viability (nuclei count vs DMSO), 5 days (fraction); higher = more cells survive
[1] = compound: Cn1cc(-c2cnc3ccc4ccc(CS(=O)(=O)NCc5ccccn5)cc4c(=O)c3c2)cn1 [MK-8033] + COc1cc2c(Oc3ccc(NC(=O)C4(C(=O)Nc5ccc(F)cc5)CC4)cc3F)ccnc2cc1OCCCN1CCOCC1 [Foretinib] (partner 0.25 µM)
Method in brief: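 Nuclei were stained with Hoechst during a one-step fixation (final 0.05% Triton X-100, 1% formaldehyde, 1 ug/ml Hoechst) carried out 5 days after dosing, then counted on 4× images. The cells, lung cancer lines in 1536-well plates, had been dosed by pin tool the day after seeding with one drug alone or a fixed anchor-drug dose plus five library-drug doses (not always all listed) in √10 steps. Relative viability is the nuclei count in treated wells divided by that in vehicle wells, and each value is the median of duplicate plates.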

[2] = compound: CC[C@@H](C)CNCC(=O)N1CCC2=C([C@@H]1COC3=CC=CC(=C3)C)C=CS2 [RU-SKI 43]
Method in brief: (§1)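 Viability here means nuclei in treated wells divided by nuclei in vehicle wells, reported as the median across plates. Only plates with control CV below 25% and at least one doubling passed. Lung cancer cell lines in 1536-well plates were exposed to five √10-spaced library-drug doses for 5 days and counted from 4× Hoechst images in MetaXpress.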

[3] = compound: CCc1c2c(nc3ccc(OC(=O)N4CCC(N5CCCCC5)CC4)cc13)-c1cc3c(c(=O)n1C2)COC(=O)[C@]3(O)CC [Irinotecan]
Method in brief: as §1

[4] = compound: Cn1cc(-c2cnc3ccc4ccc(CS(=O)(=O)NCc5ccccn5)cc4c(=O)c3c2)cn1 [MK-8033]
Method in brief: as §1

| Cell Line | relative viability ([1]; first compound 0.02 µM) | relative viability ([1]; first compound 0.06325 µM) | relative viability ([1]; first compound 0.2 µM) | relative viability ([1]; first compound 0.6325 µM) | relative viability ([1]; first compound 2 µM) | relative viability ([2]; 0.1 µM) | relative viability ([2]; 0.3162 µM) | relative viability ([2]; 1 µM) | relative viability ([2]; 3.162 µM) | relative viability ([2]; 10 µM) | relative viability ([3]; 0.6325 µM) | relative viability ([3]; 2 µM) | relative viability ([3]; 6.325 µM) | relative viability ([3]; 20 µM) | relative viability ([4]; 0.02 µM) | relative viability ([4]; 0.06325 µM) | relative viability ([4]; 0.2 µM) | relative viability ([4]; 0.6325 µM) | relative viability ([4]; 2 µM) |
| --- | --- | --- | --- | --- | --- | --- | --- | --- | --- | --- | --- | --- | --- | --- | --- | --- | --- | --- | --- |
| SK-MES-1 | 0.899 | 0.86 | 0.858 | 0.805 | 0.851 | 1.05 | 1.16 | 1.01 | 1.05 | 0.977 | 0.873 | 0.799 | 0.327 | 0.236 | 0.925 | 0.935 | 0.942 | 0.96 | 0.998 |
| NCI-H2342 | 1.04 | 1.08 | 0.976 | 0.947 | 1.07 | 0.895 | 0.773 | 0.972 | 1.18 | 0.989 | 0.938 | 0.97 | 1 | 0.575 | 0.988 | 1.11 | 1.12 | 1.13 | 1.13 |
| NCI-H1299 | 1.09 | 1.08 | 1.02 | 1.13 | 1.06 | 1.02 | 1.09 | 1.05 | 1.04 | 0.946 | 0.799 | 0.738 | 0.489 | 0.283 | 1.01 | 1.02 | 0.994 | 0.985 | 1 |
| NCI-H1650 | 1.13 | 1.04 | 1.07 | 1.08 | 0.951 | 0.942 | 0.999 | 1.04 | 0.977 | 0.853 | 0.677 | 0.836 | 0.489 | 0.21 | 0.942 | 0.714 | 0.853 | 0.842 | 0.848 |
| NCI-H647 | 1.09 | 1.15 | 1.02 | 1.17 | 1.1 | 1.04 | 0.987 | 1.13 | 1.07 | 0.996 | 0.866 | 0.815 | 0.191 | 0.142 | 0.919 | 0.943 | 0.89 | 0.935 | 0.874 |
| NCI-H1944 | 0.88 | 0.773 | 0.852 | 0.962 | 0.927 | 1.01 | 0.98 | 1.08 | 0.968 | 0.932 | 0.67 | 0.559 | 0.244 | 0.194 | 0.927 | 0.768 | 0.982 | 0.968 | 1.03 |
| NCI-H23 | 0.826 | 0.932 | 0.961 | 1.02 | 0.942 | 1.03 | 1.18 | 1.1 | 1.1 | 0.926 | 0.693 | 0.73 | 0.332 | 0.234 | 0.977 | 0.897 | 0.893 | 1.06 | 0.86 |
| NCI-H1792 | – | – | – | – | – | 0.844 | 1.08 | 1.77 | 0.889 | 1.03 | 0.862 | 0.933 | 0.393 | 0.354 | 1.22 | 0.958 | 0.804 | 0.9 | 0.805 |
| HCC-78 | 0.444 | – | 0.548 | 0.575 | 0.55 | 1.01 | 0.961 | 1.2 | 0.944 | 0.911 | 0.8 | 0.686 | 0.24 | 0.326 | 0.959 | 0.895 | 0.863 | 0.982 | 0.926 |
| NCI-H358 | 0.801 | 0.511 | 0.72 | 0.565 | 0.643 | 0.94 | 1.19 | 0.922 | 0.97 | 0.898 | 0.744 | 0.66 | 0.323 | 0.169 | 0.961 | 0.751 | 0.917 | 0.958 | 0.806 |
| NCI-H520 | 0.992 | 0.777 | 0.762 | 0.844 | 0.556 | 1.07 | 1.08 | 1.09 | 1.06 | 0.938 | 0.898 | 0.726 | 0.365 | 0.325 | 1.06 | 0.98 | 1.01 | 1.03 | 0.928 |
| BEN | 0.642 | 0.541 | 0.527 | 0.606 | 0.646 | 1.05 | 0.987 | 1.25 | 0.991 | 1.05 | 0.735 | 0.73 | 0.345 | 0.338 | 1.04 | 0.913 | 0.963 | 0.934 | 0.939 |
| A-427 | 1.04 | 1.04 | 0.903 | 1.11 | 1 | 1.09 | 1.02 | 1.12 | 0.94 | 1.03 | – | 0.844 | 0.299 | 0.21 | 1.05 | 0.963 | 0.877 | 1.06 | 0.96 |
| EMC-BAC-2 | 0.899 | 0.942 | 0.936 | 1.05 | 0.971 | 1.04 | 0.983 | 1.28 | 0.97 | 0.971 | 0.562 | 0.616 | 0.328 | 0.231 | 1.13 | 0.904 | 0.916 | 1.03 | 0.947 |
| NCI-H1975 | 0.944 | 0.944 | 0.875 | – | 1 | 1.07 | 1.25 | 1.05 | 1.01 | 0.922 | 0.894 | 1.04 | 0.622 | 0.196 | 0.892 | 0.905 | 0.862 | 0.854 | 0.931 |
| NCI-H1755 | 0.961 | 0.884 | 0.865 | 0.889 | 0.949 | 1.03 | 1.03 | 1.1 | 1.1 | 1 | 0.966 | 0.984 | 0.433 | 0.408 | 0.982 | 1.02 | 0.945 | 0.973 | 0.974 |
| NCI-H1648 | – | – | – | – | – | 0.943 | 0.809 | 1.03 | 0.853 | 0.779 | 1.03 | 0.712 | 0.637 | 0.278 | 0.724 | 0.698 | 0.846 | 0.832 | 0.956 |
| NCI-H522 | – | – | – | – | – | 1.02 | 1.05 | 1.16 | 0.982 | 1.17 | 0.694 | 0.844 | 0.52 | 0.639 | 0.983 | 0.793 | 0.954 | 1.05 | 0.959 |

— the supplement of paper PMC10307832
